Measured values as given in patent US20250122191A1, “COMPOUNDS AS BCL-2 INHIBITORS” (Fochon Biosciences, Ltd, priority 2021, published 2025).

How the values were obtained:
Assay type in all cases: cell-based
RS4;11-BCL-2 F104L cells = assay: Cell proliferation assay (MTS), RS4;11-BCL-2 F104L engineered cells; conditions: Homo sapiens, 120 h, read-out: RS4, 11 BCL2-F104L IC50
Description: MTS testing kit was purchased from Promega (Madison, WI, USA). The RPMI-1640, Fetal bovine serum and Penicillin-Streptomycin were purchased from BI (Biological Industries, Beit Haemek, Israel). Puromycin was purchased from Beyotime (shanghai, China). Dimethyl sulfoxide (DMSO) was purchased from Sigma (St. Louis., MO, USA). RS4;11-BCL-2 G101V (Cobioer Lot. #: CBD2021063013P4), RS4;11-BCL-2 D103E (Cobioer Lot. #: CBD2021063013P4), RS4;11-BCL-2 D103Y (Cobioer Lot. #: CBD2022012101P4) and RS4;11-BCL-2 F104L (Cobioer Lot. #: CBD2021063014P4) cells were cultured in RPMI1640 supplemented with 1 ug/mL puromycin, 100 U/mL Penicillin-Streptomycin and 10% FBS.
To investigate whether a compound is able to inhibit the activity of BCL-2 mutation in cells, a mechanism-based assay using engineered cell lines stably overexpressing BCL-2 mutation (RS4;11-BCL-2 G101V, RS4;11-BCL-2 D103E, RS4;11-BCL-2 D103Y, and RS4;11-BCL-2 F104L) was developed. In this assay, the inhibition of BCL-2 mutation was reflected by the inhibition of cell proliferation of engineered RS4;11 cells. Cells were plated into 96-well plates at optimized cell density (RS4;11-BCL-2 G101V: 5000 cells/well; RS4;11-BCL-2 D103E: 7500 cells/well; RS4;11-BCL-2 D103Y: 7500 cells/well; RS4;11-BCL-2 F104L: 5000 cells/well). Plates were incubated at 37° C., with 5% CO2 for 4 h (RS4;11-BCL-2 G101V, RS4;11-BCL-2 F104L) and 24 h (RS4;11-BCL-2 D103E, RS4;11-BCL-2 D103Y), respectively. Compounds were serially diluted and added to the plates with the final concentrations of 10000, 3333.3, 1111.1, 370.4, 123.5, 41.2, 13.7, 4.6 and 1.5 nM. Plates were incubated at 37° C., with 5% CO2 for 120 h (RS4; 11-BCL-2 G101V, RS4; 11-BCL-2 F104L) and 72 h (RS4;11-BCL-2 D103E, RS4;11-BCL-2 D103Y), respectively. 20 μl MTS was added into each well and the plates were incubated at 37° C., with 5% CO2 exactly for 2 h. The absorbance was measured by a microplate reader at 490 nm. IC50 values were calculated using GraphPad Prism 8.0 software.

RS4;11-BCL-2 G101V cells = assay: Cell proliferation assay (MTS), RS4;11-BCL-2 G101V engineered cells; conditions: Homo sapiens, 120 h, read-out: RS4, 11 BCL2-G101V IC50
Outline: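 Inhibition of mutant BCL-2 is inferred from reduced proliferation of RS4;11 cells stably overexpressing the mutant. Compounds are tested at 1.5–10000 nM for 120 h (G101V, F104L) or 72 h (D103E, D103Y), with MTS absorbance at 490 nm used to derive IC50.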

Toledo cells = assay: Cell proliferation assay (MTS), Toledo cells; conditions: Homo sapiens, 72 h
Outline: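 Toledo cells (RPMI-1640, 10% FBS) seeded at 30000 cells/well, rested 4 h, then exposed 72 h at 37 °C, 5% CO2 to compound at nine final concentrations, 1.5–10000 nM. Viability by MTS (2 h), absorbance at 490 nm. IC50 from the concentration-response.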

IC50 (RS4;11-BCL-2 F104L cells) [nM]	IC50 (RS4;11-BCL-2 G101V cells) [nM]	Compound	IC50 (Toledo cells) [nM]
1	1	CCOc1cc(CN2CCN(C3CC4(CCN(c5ccc(C(=O)NS(=O)(=O)c6cnc(NC[C@H]7CC[C@](C)(O)CC7)c([N+](=O)[O-])c6)c(Oc6cc7c(F)c[nH]c7nc6OC)c5)CC4)C3)[C@H](c3ccccc3C(C)C)C2)ccn1 [Example 65, 4-(2-((R)-4-((2-ethoxypyridin-4-yl)methyl)-2-(2-isopropylphenyl)piperazin-1-yl)-7-azaspiro[3.5]nonan-7-yl)-2-((3-fluoro-6-methoxy-1H-pyrrolo[2,3-b]pyridin-5-yl)oxy)-N-((6-((((1r,4r)-4-hydroxy-4-methylcyclohexyl)methyl)amino)-5-nitropyridin-3-yl)sulfonyl)benzamide]	–
1	1	COc1cc(CN2CCN(C3CC4(CCN(c5ccc(C(=O)NS(=O)(=O)c6cnc(NC[C@H]7CC[C@](C)(O)CC7)c([N+](=O)[O-])c6)c(Oc6cc7c(F)c[nH]c7nc6OC)c5)CC4)C3)[C@H](c3ccccc3C(C)C)C2)cc(C)n1 [Example 55, 2-((3-fluoro-6-methoxy-1H-pyrrolo[2,3-b]pyridin-5-yl)oxy)-N-((6-((((1r,4r)-4-hydroxy-4-methylcyclohexyl)methyl)amino)-5-nitropyridin-3-yl)sulfonyl)-4-(2-((R)-2-(2-isopropylphenyl)-4-((2-methoxy-6-methylpyridin-4-yl)methyl)piperazin-1-yl)-7-azaspiro[3.5]nonan-7-yl)benzamide]	–
1	1	COc1cc(CN2CCN(C3CC4(CCN(c5ccc(C(=O)NS(=O)(=O)c6cnc(NC[C@H]7CC[C@](C)(O)CC7)c([N+](=O)[O-])c6)c(Oc6cc7c(F)c[nH]c7nc6OC)c5)CC4)C3)[C@H](c3ccccc3C(C)C)C2)cc(SC)n1 [Example 63, 2-((3-fluoro-6-methoxy-1H-pyrrolo[2,3-b]pyridin-5-yl)oxy)-N-((6-((((1r,4r)-4-hydroxy-4-methylcyclohexyl)methyl)amino)-5-nitropyridin-3-yl)sulfonyl)-4-(2-((R)-2-(2-isopropylphenyl)-4-((2-methoxy-6-(methylthio)pyridin-4-yl)methyl)piperazin-1-yl)-7-azaspiro[3.5]nonan-7-yl)benzamide]	–
1	1	COc1cc(CN2CCN(C3CC4(CCN(c5ccc(C(=O)NS(=O)(=O)c6cnc(NC[C@H]7CC[C@](C)(O)CC7)c([N+](=O)[O-])c6)c(Oc6cc7c(F)c[nH]c7nc6OC)c5)CC4)C3)[C@H](c3ccccc3C(C)C)C2)cc(N)n1 [Example 57, 4-(2-((R)-4-((2-amino-6-methoxypyridin-4-yl)methyl)-2-(2-isopropylphenyl)piperazin-1-yl)-7-azaspiro[3.5]nonan-7-yl)-2-((3-fluoro-6-methoxy-1H-pyrrolo[2,3-b]pyridin-5-yl)oxy)-N-((6-((((1r,4r)-4-hydroxy-4-methylcyclohexyl)methyl)amino)-5-nitropyridin-3-yl)sulfonyl)benzamide]	–
3	2	COc1cc(CN2CCN(C3CC4(CCN(c5ccc(C(=O)NS(=O)(=O)c6cnc(NC[C@H]7CC[C@](C)(O)CC7)c([N+](=O)[O-])c6)c(Oc6cc7c(F)c[nH]c7nc6OC)c5)CC4)C3)[C@H](c3ccccc3C(C)C)C2)cc(C#N)n1 [Example 56, 4-(2-((R)-4-((2-cyano-6-methoxypyridin-4-yl)methyl)-2-(2-isopropylphenyl)piperazin-1-yl)-7-azaspiro[3.5]nonan-7-yl)-2-((3-fluoro-6-methoxy-1H-pyrrolo[2,3-b]pyridin-5-yl)oxy)-N-((6-((((1r,4r)-4-hydroxy-4-methylcyclohexyl)methyl)amino)-5-nitropyridin-3-yl)sulfonyl)benzamide]	–

Second part, the molecule before the results:

Compound	IC50 (RS4;11-BCL-2 F104L cells) [nM]	IC50 (RS4;11-BCL-2 G101V cells) [nM]	IC50 (Toledo cells) [nM]
COc1nc2[nH]cc(F)c2cc1Oc1cc(N2CCC3(CC2)CC(N2CCN(Cc4ccc(S(C)(=N)=O)cc4)C[C@H]2c2ccccc2C(C)C)C3)ccc1C(=O)NS(=O)(=O)c1cnc(NC[C@H]2CC[C@](C)(O)CC2)c([N+](=O)[O-])c1 (stereo partly drawn) [Example 336, 2-((3-fluoro-6-methoxy-1H-pyrrolo[2,3-b]pyridin-5-yl)oxy)-N-((6-((((1r,4r)-4-hydroxy-4-methylcyclohexyl)methyl)amino)-5-nitropyridin-3-yl)sulfonyl)-4-(2-((2R)-2-(2-isopropylphenyl)-4-(4-(S-methylsulfonimidoyl)benzyl)piperazin-1-yl)-7-azaspiro[3.5]nonan-7-yl)benzamide]	1	–	1
COc1ccc(CN2CCN(C3CC4(CCN(c5ccc(C(=O)NS(=O)(=O)c6cnc(NC[C@H]7CC[C@](C)(O)CC7)c([N+](=O)[O-])c6)c(Oc6cnc7[nH]ccc7c6)c5)CC4)C3)[C@H](c3ccccc3C(C)C)C2)c2cc(C)oc12 [Example 66, 2-((1H-pyrrolo[2,3-b]pyridin-5-yl)oxy)-N-((6-((((1r,4r)-4-hydroxy-4-methylcyclohexyl)methyl)amino)-5-nitropyridin-3-yl)sulfonyl)-4-(2-((R)-2-(2-isopropylphenyl)-4-((7-methoxy-2-methylbenzofuran-4-yl)methyl)piperazin-1-yl)-7-azaspiro[3.5]nonan-7-yl)benzamide]	1	1	–
COc1cc(CN2CCN(C3CC4(CCN(c5ccc(C(=O)NS(=O)(=O)c6cnc(NC[C@H]7CC[C@](C)(O)CC7)c([N+](=O)[O-])c6)c(Oc6cc7c(F)c[nH]c7nc6OC)c5)CC4)C3)[C@H](c3ccccc3C(C)C)C2)cc2c1OCCC2 [Example 103, 2-((3-fluoro-6-methoxy-1H-pyrrolo[2,3-b]pyridin-5-yl)oxy)-N-((6-((((1r,4r)-4-hydroxy-4-methylcyclohexyl)methyl)amino)-5-nitropyridin-3-yl)sulfonyl)-4-(2-((R)-2-(2-isopropylphenyl)-4-((8-methoxychroman-6-yl)methyl)piperazin-1-yl)-7-azaspiro[3.5]nonan-7-yl)benzamide]	1	–	1
COc1nc2[nH]cc(F)c2cc1Oc1cc(N2CCC3(CC2)CC(N2CCC[C@H]2c2ccccc2C(C)C)C3)ccc1C(=O)NS(=O)(=O)c1cnc(NC[C@H]2CC[C@](C)(O)CC2)c([N+](=O)[O-])c1 [Example 89, 2-((3-fluoro-6-methoxy-1H-pyrrolo[2,3-b]pyridin-5-yl)oxy)-N-((6-((((1r,4r)-4-hydroxy-4-methylcyclohexyl)methyl)amino)-5-nitropyridin-3-yl)sulfonyl)-4-(2-((S)-2-(2-isopropylphenyl)pyrrolidin-1-yl)-7-azaspiro[3.5]nonan-7-yl)benzamide]	1	1	–
CCOc1nc2[nH]cc(F)c2cc1Oc1cc(N2CCC3(CC2)CC(N2CCC[C@H]2c2ccccc2C(C)C)C3)ccc1C(=O)NS(=O)(=O)c1cnc(NC[C@H]2CC[C@](C)(O)CC2)c([N+](=O)[O-])c1 [Example 90, 2-((6-ethoxy-3-fluoro-1H-pyrrolo[2,3-b]pyridin-5-yl)oxy)-N-((6-((((1r,4r)-4-hydroxy-4-methylcyclohexyl)methyl)amino)-5-nitropyridin-3-yl)sulfonyl)-4-(2-((S)-2-(2-isopropylphenyl)pyrrolidin-1-yl)-7-azaspiro[3.5]nonan-7-yl)benzamide]	1	–	–
COc1nc2[nH]cc(F)c2cc1Oc1cc(N2CCC3(CC2)CC(N2CCN(Cc4ccnc(OC(F)F)c4)C[C@H]2c2ccccc2C(C)C)C3)ccc1C(=O)NS(=O)(=O)c1cnc(NC[C@H]2CC[C@](C)(O)CC2)c([N+](=O)[O-])c1 [Example 67, 4-(2-((R)-4-((2-(difluoromethoxy)pyridin-4-yl)methyl)-2-(2-isopropylphenyl)piperazin-1-yl)-7-azaspiro[3.5]nonan-7-yl)-2-((3-fluoro-6-methoxy-1H-pyrrolo[2,3-b]pyridin-5-yl)oxy)-N-((6-((((1r,4r)-4-hydroxy-4-methylcyclohexyl)methyl)amino)-5-nitropyridin-3-yl)sulfonyl)benzamide]	1	1	–
